# According to patent US9181290B2, “Inhibition of biofilm formation by 1,2,3,4,6-penta-O-galloyl-D-glucopyranose” (CHANG GUNG UNIVERSITY, priority 2011, dated 2015):
# Legend:
# [1] = system: icaA gene transcription in S. aureus SA113; assay: icaA expression by real-time RT-PCR; type: cell-based, Staphylococcus aureus; conditions: concentrations below 50 μM, 5 hr treatment, normalized to gyrB
# Description: Bacterial cells were treated with 0.5 mg/mL lysostaphin (Sigma-Aldrich) at 37° C. for 15 min, and total bacterial mRNA was isolated and purified using a TRIzol reagent (Invitrogen) according to the manufacturer's instructions, followed by quantification of icaA expression by real-time RT-PCR (LightCycler, Roche, Mannheim, Germany). The icaA mRNA was reverse-transcribed and amplified using primers A1 (5′-[…]-3′) (SEQ ID NO:1) and B1 (5′-[…]-3′) (SEQ ID NO:2) that were designed based on the sequence of the icaA gene (Gene ID:3921484). […] Amplified PCR products were detected using a Light Cycler-RNA Amplification Kit Cyber Green 1 (Roche, Mannheim, Germany), starting with a cycle of denaturation at 95° C. for 5 min, then running for 45 cycles as follows: at 95° C. for 30 sec, 62° C. for 30 sec and 72° C. for 20 sec. To monitor the specificity of RT-PCR reaction, the PCR products were analyzed by melting curve analysis.
# To determine whether the β-PGG inhibition effected at the transcriptional level, total mRNAs were isolated from S. aureus SA113 cells after 5 hr treatment with β-PGG at various concentration (0, 3.13, 12.5 and 50 μM), and transcription of the icaA gene was analyzed by LightCycler quantitative RT-PCR.
# HEp-2 cells = assay: Cell viability assay (MTT); type: cell-based, human; conditions: concentrations below 50 μM, 24 hr treatment, 10% fetal calf serum
# Description: (§1) Human HepG2 cells (ATCC HB-8065) and 293T cells (ATCC CRL-11268) were cultured in Dulbecco's modified Eagle's medium (DMEM) supplemented with 10% (v/v) fetal calf serum. Human MRC-5 cells (ATCC CCL171) and HEp-2 cells (ATCC CCL-23) were cultured in Eagle's minimum essential medium (MEM) supplemented with 10% fetal calf serum. These four human cell lines were seeded into 24-well polystyrene tissue culture plates at a cell density of 1×10^5 cells/500 μL medium per well, respectively. After incubation at 37° C. for 24 hrs, β-PGG was added into each well in various amounts (0, 6.25, 12.5, 25 and 50 μM). After 24 hr treatment of β-PGG, toxicity of β-PGG to these human cell lines was determined using the 3-(4,5-dimethylthiazol-2-yl)-2,5-diphenyltetrazolium bromide (MTT) method (Xiangshu Piao et al. (2008), supra). Additionally, toxicity of β-PGG to the 293T cells was also determined in medium containing 0% and 2% fetal calf serum. Cells treated with DMSO were used as a negative control.
# MRC-5 cells = assay: Cell viability assay (MTT); type: cell-based, human; conditions: concentrations below 50 μM, 24 hr treatment, 10% fetal calf serum
# Description: as §1
# 293T cells = assay: Cell viability assay (MTT); type: cell-based, human
# Description: as §1
# HepG2 cells = assay: Cell viability assay (MTT); type: cell-based, human; conditions: concentrations below 50 μM, 24 hr treatment, 10% fetal calf serum
# Description: as §1
# Enterococcus faecalis = assay: Anti-biofilm activity (data not shown); type: cell-based
# S. aureus SA113 [2] = assay: CFU counting of cells adhered to polystyrene surface; type: cell-based, Staphylococcus aureus
# Text: (§2) To count the number of viable cells, the removed suspended cells were suspended in PBS by pipetting, and the resultant cell suspension was sonicated and serially diluted and subsequently plated on TSBg agar plate for colony forming unit (CFU) counting according to a method described earlier (S. Schlag et al. (2007), J. Bacteriol., 189:7911-7919).
# In addition to biofilm formation, the number of cells attached to polystyrene surface and polycarbonate surface were also counted. Subsequent to the incubation of S. aureus SA113 cells with β-PGG (0 μM, 6.25 μM or 12.5 μM) for 20, 40 and 60 min, cells adhered to the polystyrene surface or polycarbonate surface were washed and suspended in PBS, followed by plating on TSBg agar for CFU counting. After incubation on polystyrene surface for 20, 40 and 60 min, the number of cells counted for the DMSO-treated control (i.e., 0 μM β-PGG) was 4.1×10^5, 6.4×10^5 and 7.8×10^5 CFU, respectively (FIG. 4, panel A, black bars).
# S. aureus SA113 [3] = assay: Fluorescence microscopy of adhered cells after Syto 9 staining; type: cell-based, Staphylococcus aureus; conditions: 6.25 μM and 12.5 μM, 60 min
# Description: Meanwhile, cells adhering to the polystyrene or polycarbonate surfaces were washed off with PBS at 60 min after seeding and stained with Syto 9 (Invitrogen), a green florescence dye that stains nucleic acids, followed by observation under a fluorescence microscope.
# The cells adhering to the polystyrene surface and polycarbonate surface after treatment with 0 μM, 6.25 μM and 12.5 μM β-PGG for 60 min were also examined under a fluorescent microscope after Syto 9 staining.
# S. aureus SA113 [4] = assay: CFU counting of cells adhered to polycarbonate surface; type: cell-based, Staphylococcus aureus
# Text: as §2
# To quantify the amount of biofilm formed on polycarbonate surface, a 13-mm-diameter polycarbonate disc (Thermanox, Nalgene Nunc International, Rochester, N.Y., USA) was placed in a well of a 24-well microtiter plate, followed by the addition of 1 mL aliquot of the diluted bacterial culture. After incubation at 37° C. for a designated period of time, viable cells were washed off the surface of the polycarbonate disc with PBS and counted as described above, while the PBS-washed polycarbonate disc was subjected to crystal violet staining for biofilm quantification as described above.
# In addition to biofilm formation, the number of cells attached to polystyrene surface and polycarbonate surface were also counted.
smiles,measurement,setting,value
"O=C(OC[C@H]1O[C@@H](OC(=O)c2cc(O)c(O)c(O)c2)[C@H](OC(=O)c2cc(O)c(O)c(O)c2)[C@@H](OC(=O)c2cc(O)c(O)c(O)c2)[C@@H]1OC(=O)c1cc(O)c(O)c(O)c1)c1cc(O)c(O)c(O)c1 [β-PGG, 1,2,3,4,6-penta-O-galloyl-β-D-glucopyranose]",transcription of icaA,[1],did not influence the transcription of icaA
same,cell viability (MTT),HEp-2 cells,did not affect the viability
same,cell viability (MTT),MRC-5 cells,did not affect the viability
same,cell viability (MTT),"293T cells; concentrations below 50 μM, 24 hr treatment, 10% fetal calf serum",did not affect the viability
same,influence of serum concentration on toxicity,293T cells; medium with 2% or 0% fetal calf serum,no influence upon the toxicity
same,cell viability (MTT),HepG2 cells,did not affect the viability
same,anti-biofilm activity,Enterococcus faecalis,potent to mild anti-biofilm activity
same,number of cells attached to polystyrene surface,"S. aureus SA113 [2]; 6.25 μM, 20 min, DMSO control 4.1×10^5",2.1×10^5 CFU
same,number of cells attached to polystyrene surface,"S. aureus SA113 [2]; 6.25 μM, 40 min, DMSO control 6.4×10^5",2.05×10^5 CFU
same,number of cells attached to polystyrene surface,"S. aureus SA113 [2]; 6.25 μM, 60 min, DMSO control 7.8×10^5",1.8×10^5 CFU
same,number of cells attached to polystyrene surface,"S. aureus SA113 [2]; 12.5 μM, 20 min, DMSO control 4.1×10^5",3.7×10^4 CFU
same,number of cells attached to polystyrene surface,"S. aureus SA113 [2]; 12.5 μM, 40 min, DMSO control 6.4×10^5",2.3×10^4 CFU
same,number of cells attached to polystyrene surface,"S. aureus SA113 [2]; 12.5 μM, 60 min, DMSO control 7.8×10^5",1.7×10^4 CFU
same,cells attached to polystyrene and polycarbonate surfaces (Syto 9),S. aureus SA113 [3],significantly reduced the number of cells attached
same,number of cells attached to polycarbonate surface,"S. aureus SA113 [4]; 6.25 μM, 20 min, DMSO control 7×10^5",2.9×10^5 CFU
same,number of cells attached to polycarbonate surface,"S. aureus SA113 [4]; 6.25 μM, 40 min, DMSO control 1.1×10^6",2.3×10^5 CFU
same,number of cells attached to polycarbonate surface,"S. aureus SA113 [4]; 6.25 μM, 60 min, DMSO control 2×10^6",3.5×10^5 CFU
same,number of cells attached to polycarbonate surface,"S. aureus SA113 [4]; 12.5 μM, 20 min, DMSO control 7×10^5",1.0×10^5 CFU
same,number of cells attached to polycarbonate surface,"S. aureus SA113 [4]; 12.5 μM, 40 min, DMSO control 1.1×10^6",8×10^4 CFU
same,number of cells attached to polycarbonate surface,"S. aureus SA113 [4]; 12.5 μM, 60 min, DMSO control 2×10^6",5×10^4 CFU
